Measurements published in patent publication US20240316051A1, “A PHARMACEUTICAL COMBINATION AND USE THEREOF” (Ascentage Pharma (Suzhou) Co., Ltd., priority 2021, published 2024).
Where two headings read alike, the source gives them in different places.

Biological target: T1, EED (1-441)-His protein (Homo sapiens, UniProt O75530)
T1 construct: 20 nM EED (1-441)-His protein
Experiment: EED-H3K27Me3 peptide competition binding assay by AlphaScreen
Settings: read-out: Alpha screen
Procedure, shortened: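 Readout was AlphaScreen emission at 615 nm after 680 nm excitation, with 10 μg/ml final each of streptavidin donor and nickel chelate acceptor beads, 1 h at RT in the dark. Beforehand, compound met the His-tagged EED(1-441) for 15 min and then biotinylated H3K27Me3(19-33) peptide for 30 min; both were added as 20 nM solutions, buffer 25 mM HEPES pH 8, Tween-20, BSA. Percent activity left was fitted to give IC50.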

T1 sequence (O75530 whole entry): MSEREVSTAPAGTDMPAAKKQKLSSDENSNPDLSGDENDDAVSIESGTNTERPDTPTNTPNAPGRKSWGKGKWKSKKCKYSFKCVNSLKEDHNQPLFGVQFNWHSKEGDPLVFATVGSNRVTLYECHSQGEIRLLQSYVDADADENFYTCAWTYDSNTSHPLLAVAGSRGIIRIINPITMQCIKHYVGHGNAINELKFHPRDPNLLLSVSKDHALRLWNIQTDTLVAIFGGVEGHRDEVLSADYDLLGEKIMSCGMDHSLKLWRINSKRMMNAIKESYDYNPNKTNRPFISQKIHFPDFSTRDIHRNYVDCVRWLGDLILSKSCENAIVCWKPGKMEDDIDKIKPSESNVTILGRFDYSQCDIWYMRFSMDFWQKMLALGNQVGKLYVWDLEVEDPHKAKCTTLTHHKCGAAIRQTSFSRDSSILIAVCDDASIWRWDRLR

Row | Compound | IC50 (Table 4A) [nM] | IC50 (IC50 class, Table 4B) [nM]
1 | O=C1c2ncn3c(NCc4c(F)ccc5c4CCO5)ncc(c23)-c2ccc(C(F)(F)F)cc2CN1CC(F)(F)F [Compound 83, 12-(((5-fluoro-2,3-dihydrobenzofuran-4-yl)methyl)amino)-4-(2,2,2-trifluoroethyl)-7-(trifluoromethyl)-4,5-dihydro-3H-2,4,11,12a-tetraazabenzo[4,5] cycloocta[1,2,3-cd]inden-3-one] | 9.95 | –
2 | CC(C)N1Cc2cc(C#N)ccc2-c2cnc(NCc3c(F)ccc4c3CCO4)n3cnc(c23)C1=O [E 4, 12-(((5-fluoro-2,3-dihydrobenzofuran-4-yl)methyl)amino)-4-isopropyl-3-oxo-4,5-dihydro-3H-2,4,11, 12a-tetraazabenzo[4,5]cycloocta[1,2,3-cd]indene-7-carbonitrile] | – | < 10
3 | O=C1NCc2nc(C(F)(F)F)ccc2-c2cnc(NCc3c(F)ccc4c3CCO4)n3cnc1c23 [Compound 25, 12-(((5-fluoro-2,3-dihydrobenzofuran-4-yl)methyl)amino)-7-(trifluoromethyl)-4,5-dihydro-3H-2,4,6, 11,12a-pentaazabenzo[4,5]cycloocta[1,2,3-cd] inden-3-one] | 3.31 | –
4 | O=C1c2ncn3c(NCc4c(F)ccc5c4CCO5)ncc(c23)-c2ccc(C(F)(F)F)nc2CN1CC1(O)CC1 [Compound 44, 12-(((5-fluoro-2,3-dihydrobenzofuran-4-yl)methyl)amino)-4-((1-hydroxycyclopropyl)methyl)-7-(trifluoromethyl)-4,5-dihydro-3H-2,4,6,11,12a-pentaazabenzo[4,5]cycloocta[1,2,3-cd]inden-3-one] | 1.34 | –
5 | CN1CCC(CN2Cc3cc(C(F)(F)F)ncc3-c3cnc(NCc4c(F)ccc5c4CCO5)n4cnc(c34)C2=O)CC1 [Compound 38, 12-(((5-fluoro-2,3-dihydrobenzofuran-4-yl)methyl)amino)-4-((1-methylpiperidin-4-yl)methyl)-7-(trifluoromethyl)-4,5-dihydro-3H-2,4,8,11,12a-pentaazabenzo[4,5]cycloocta[1,2,3-cd]inden-3-one] | 1.25 | –
6 | O=C1c2ncn3c(NCc4c(F)ccc5c4CCO5)ncc(c23)-c2ccc(C3COCCO3)nc2CN1CC(F)(F)F (stereo not shown) [E 48, 7-(1,4-dioxan-2-yl)-12-(((5-fluoro-2,3-dihydrobenzo-furan-4-yl)methyl)amino)-4-(2,2,2-trifluoroethyl)-4,5-dihydro-3H-2,4,6, 11,12a-pentaazabenzo[4,5] cycloocta[1,2,3-cd]inden-3-one] | – | < 10
7 | [2H]C([2H])(Nc1ncc2c3c(ncn13)C(=O)N(CC(F)(F)F)Cc1cc(C(=O)N(C)C)ccc1-2)c1c(F)ccc2c1CCO2 [E 24, 12-(((5-fluoro-2,3-dihydrobenzofuran-4-yl)methyl-d2)amino)-N,N-dimethyl-3-oxo-4-(2,2,2-trifluoroethyl)-4,5-dihydro-3H-2,4,11,12a-tetraazabenzo[4, 5]cycloocta[1,2,3-cd]indene-7-carboxamide] | – | 10 to 100
8 | O=C1c2ncn3c(NCc4c(F)ccc5c4CCO5)ncc(c23)-c2cnc(C(F)(F)F)cc2CN1CC(F)(F)F [Compound 84, 12-(((5-fluoro-2,3-dihydrobenzofuran-4-yl)methyl)amino)-4-(2,2,2-trifluoroethyl)-7-(trifluoromethyl)-4,5-dihydro-3H-2,4,8,11,12a-pentaazabenzo[4,5] cycloocta[1,2,3-cd]inden-3-one] | 3.07 | –
9 | CC(C)(O)CN1Cc2nc(C(F)(F)F)ccc2-c2cnc(NCc3c(F)ccc4c3CCO4)n3cnc(c23)C1=O [Compound 58, 12-(((5-fluoro-2,3-dihydrobenzofuran-4-yl)methyl)amino)-4-(2-hydroxy-2-methylpropyl)-7-(trifluoro-methyl)-4,5-dihydro-3H-2,4,6,11,12a-pentaazabenzo [4,5]cycloocta[1,2,3-cd]inden-3-one] | 2.74 | –
10 | Cn1ncc2c1CNC(=O)c1ncn3c(NCc4c(F)ccc5c4CCO5)ncc-2c13 [Compound 53, 11-(((5-fluoro-2,3-dihydrobenzofuran-4-yl)methyl)amino)-6-methyl-5,6-dihydro-2,4,6,7,10,11a-hexaazacyclopenta[4,5]cycloocta[1,2,3-cd]inden-3(4H)-one] | 3.96 | –
11 | CC(C)(C)c1cc2c(cn1)-c1cnc(NCc3c(F)ccc4c3CCO4)n3cnc(c13)C(=O)N(CC(F)(F)F)C2 [E 46, 7-(tert-butyl)-12-(((5-fluoro-2,3-dihydrobenzofuran-4-yl)methyl)amino)-4-(2,2,2-trifluoroethyl)-4,5-dihydro-3H-2,4,8,11,12a-pentaazabenzo[4,5]cyclo octa[1,2,3-cd]inden-3-one] | – | < 10
12 | COCCN1Cc2nc(C(F)(F)F)ccc2-c2cnc(NCc3c(F)ccc4c3CCO4)n3cnc(c23)C1=O [Compound 57, 12-(((5-fluoro-2,3-dihydrobenzofuran-4-yl)methyl)amino)-4-(2-methoxyethyl)-7-(trifluoromethyl)-4,5-dihydro-3H-2,4,6,11,12a-pentaazabenzo[4,5] cycloocta[1,2,3-cd]inden-3-one] | 4.2 | –
13 | Cc1cnc2n1Cc1ncccc1-c1cnc(NCc3c(F)ccc4c3CCO4)n3cnc-2c13 [E 17, N-((5-fluoro-2,3-dihydrobenzofuran-4-yl)methyl)-5-methyl-6H-2,3,5a,7,12,13a-hexaazabenzo[4,5] cyclopenta[7,8]cycloocta[1,2,3-cd]inden-13-amine] | – | < 10
14 | O=C1c2ncn3c(NCc4c(F)ccc5c4CCO5)ncc(c23)-c2cnc(C(F)(F)F)cc2CN1C1CCC1 [E 5, 4-cyclobutyl-12-(((5-fluoro-2,3-dihydrobenzofuran-4-yl)methyl)amino)-7-(trifluoromethyl)-4,5-dihydro-3H-2,4,8,11,12a-pentaazabenzo[4,5] cycloocta[1,2,3-cd]inden-3-one] | – | < 10
15 | Cc1ccc2c(n1)CN(CC(F)F)C(=O)c1ncn3c(NCc4c(F)ccc5c4CCO5)ncc-2c13 [E 6, 4-(2,2-difluoroethyl)-12-(((5-fluoro-2,3-dihydro-benzofuran-4-yl)methyl)amino)-7-methyl-4,5-dihydro-3H-2,4,6,11,12a-pentaazabenzo[4,5] cycloocta[1,2,3-cd]inden-3-one] | – | < 10
16 | O=C1c2ncn3c(NCc4c(F)ccc5c4CCO5)ncc(c23)-c2ccc(C(F)(F)F)cc2CN1CC1CCOCC1 [Compound 66, 12-(((5-fluoro-2,3-dihydrobenzofuran-4-yl)methyl)amino)-4-((tetrahydro-2H-pyran-4-yl)methyl)-7-(trifluoromethyl)-4,5-dihydro-3H-2,4,11,12a-tetra-azabenzo[4,5]cycloocta[1,2,3-cd]inden-3-one] | 3.61 | –
17 | Cc1ccc2c(n1)CS(=O)(=O)c1ncn3c(NCc4c(F)ccc5c4CCO5)ncc-2c13 [Compound 95, 11-(((5-fluoro-2,3-dihydrobenzofuran-4-yl)methyl)amino)-6-methyl-4H-3-thia-2,5,10,11a-tetraazadibenzo[cd,f]azulene 3,3-dioxide] | 13.1 | –

Further lines, results first:

Row | IC50 (Table 4A) [nM] | IC50 (IC50 class, Table 4B) [nM] | Compound
18 | 1.16 | – | Cc1ccc2c(n1)CN(CC1CC(C)(O)C1)C(=O)c1ncn3c(NCc4c(F)ccc5c4CCO5)ncc-2c13 (stereo not shown) [Compound 50, 12-(((5-fluoro-2,3-dihydrobenzofuran-4-yl)methyl)amino)-4-((3-hydroxy-3-methylcyclobutyl)methyl)-7-methyl-4,5-dihydro-3H-2,4,6,11,12a-pentaaza benzo[4,5]cycloocta[1,2,3-cd]inden-3-one]
19 | 0.67 | – | O=C1NCc2cc(C(F)(F)F)ncc2-c2cnc(NCc3c(F)ccc4c3CCO4)n3cnc1c23 [Compound 22, 12-(((5-fluoro-2,3-dihydrobenzofuran-4-yl)methyl)amino)-7-(trifluoromethyl)-4,5-dihydro-3H-2,4,8, 11,12a-pentaazabenzo[4,5]cycloocta[1,2,3-cd] inden-3-one]
20 | 0.52 | – | O=C1NCc2ccccc2-c2cnc(NCc3c(F)ccc4c3CCO4)n3cnc1c23 [Compound 15, 12-(((5-fluoro-2,3-dihydrobenzofuran-4-yl)methyl)amino)-4,5-dihydro-3H-2,4,11,12a-tetraazabenzo [4,5]cycloocta[1,2,3-cd]inden-3-one]
21 | 1.19 | – | O=C1c2ncn3c(NCc4c(F)ccc5c4CCO5)ncc(c23)-c2ccc(C(F)(F)F)cc2CN1CCF [Compound 61, 12-(((5-fluoro-2,3-dihydrobenzofuran-4-yl)methyl)amino)-4-(2-fluoroethyl)-7-(trifluoromethyl)-4,5-dihydro-3H-2,4,11,12a-tetraazabenzo[4,5] cycloocta[1,2,3-cd]inden-3-one]
22 | 0.66 | – | O=C1NCc2cc(F)ccc2-c2cnc(NCc3c(F)ccc4c3CCO4)n3cnc1c23 [Compound 17, 7-fluoro-12-(((5-fluoro-2,3-dihydrobenzofuran-4-yl)methyl)amino)-4,5-dihydro-3H-2,4,11,12a-tetra azabenzo[4,5]cycloocta[1,2,3-cd]inden-3-one]
23 | 0.61 | – | O=C1OCc2cc(F)ccc2-c2cnc(NCc3c(F)ccc4c3CCO4)n3cnc1c23 [Compound 7, 7-fluoro-12-(((5-fluoro-2,3-dihydrobenzofuran-4-yl)methyl)amino)-3H,5H-4-oxa-2,11,12a-triazabenzo [4,5]cycloocta[1,2,3-cd]inden-3-one]
24 | 0.67 | – | CN1Cc2cc(C(F)(F)F)ncc2-c2cnc(NCc3c(F)ccc4c3CCO4)n3cnc(c23)C1=O [Compound 34, 12-(((5-fluoro-2,3-dihydrobenzofuran-4-yl)methyl)amino)-4-methyl-7-(trifluoromethyl)-4,5-dihydro-3H-2,4,8,11,12a-pentaazabenzo[4,5]cycloocta [1,2,3-cd]inden-3-one]
25 | 1.05 | – | O=C1c2ncn3c(NCc4c(F)ccc5c4CCO5)ncc(c23)-c2cnc(C(F)(F)F)cc2CN1CC1(O)CC1 [Compound 43, 12-(((5-fluoro-2,3-dihydrobenzofuran-4-yl)methyl)amino)-4-((1-hydroxycyclopropyl)methyl)-7-(trifluoromethyl)-4,5-dihydro-3H-2,4,8,11,12a-pentaazabenzo[4,5]cycloocta[1,2,3-cd]inden-3-one]
